Test [1] concerns the target catalytic subunit of murine PKA (Mus musculus, UniProt P05132). The test is described as follows: Protein kinase A (PKA) activity inhibition, [γ-32P]ATP phosphocellulose paper assay. The class given is biochemical.
The next test concerns the target protein kinase CK2 (Rattus norvegicus, UniProt P19139). The test is described as follows: Protein kinase CK2 activity inhibition, casein substrate, [γ-32P]ATP phosphocellulose paper assay. It counts as biochemical. As to conditions: 30°C, pH 7.5, 1 mg/mL casein, 30 µM [γ-32P] ATP; n. i. means no inhibition at 100 µM concentration of ligand.
In test [2] the target is T1, Protein Kinase A (Mus musculus, UniProt P05132). The test is described as follows: Inhibition constant for PKA (Table 3). The class given is biochemical.
The next test addresses Protein Kinase C. The test is described as follows: Inhibition constant for PKC (Table 3). The class given is biochemical.
For test [3], the target named is T1, Protein Kinase A. Description: Inhibition constant for PKA (Table 3). The class given is biochemical. This is another data set of the same source.
The next test has as its target PKA (Mus musculus, UniProt P05132). As to conditions: literature values; read-out: Kd (affinity to PKA); cited from earlier work.
The target of test [4] is Protein kinase C β isoform (PKC). The test is described as follows: Protein kinase C β (PKC) activity inhibition, [γ-32P]ATP phosphocellulose paper assay. It counts as biochemical, pig. As to conditions: 30°C, pH 7.5, 15 µM substrate peptide, 30 µM [γ-32P] ATP.
Test [5] has as its target Ca^2+-dependent protein kinase (CDPK-1). Description: Ca2+-dependent protein kinase (CDPK-1) activity inhibition, [γ-32P]ATP phosphocellulose paper assay. It counts as biochemical, maize. As to conditions: 30°C, pH 7.5, 50 µM substrate peptide, 30 µM [γ-32P]ATP.
The target of the next test is protein kinase CK1. The test is described as follows: Protein kinase CK1 activity inhibition, casein substrate, [γ-32P]ATP phosphocellulose paper assay. The class given is biochemical, rat. As to conditions: 30°C, pH 7.5, 1 mg/mL casein, 30 µM [γ-32P] ATP.

Like-named read-outs stand apart in the source and are kept apart here. *1 amine or outer side, *2 acyl side, *3 side chain or, on linkers, in order; H or OH if unused. Where a SMILES comes first, the peptide text is derived from it. [ ]: non-standard residue; d: D form. The star is where a group is joined. Adenosine(5'-uronoyl) = Nc1ncnc2c1ncn2[C@@H]1O[C@H](C(=O)*)[C@@H](O)[C@H]1O; X1 = Nc1ncnc2c1ncn2[C@@H]1O[C@H](C(=O)NC[C@H](N)C(=O)*)[C@@H](O)[C@H]1O; βAsp = O=C(O)[C@H](CC(=O)[*:2])N[*:1]; Dap = NC[C@H](N)C(=O)O

protein kinase CK2, sequence (P19139 whole entry): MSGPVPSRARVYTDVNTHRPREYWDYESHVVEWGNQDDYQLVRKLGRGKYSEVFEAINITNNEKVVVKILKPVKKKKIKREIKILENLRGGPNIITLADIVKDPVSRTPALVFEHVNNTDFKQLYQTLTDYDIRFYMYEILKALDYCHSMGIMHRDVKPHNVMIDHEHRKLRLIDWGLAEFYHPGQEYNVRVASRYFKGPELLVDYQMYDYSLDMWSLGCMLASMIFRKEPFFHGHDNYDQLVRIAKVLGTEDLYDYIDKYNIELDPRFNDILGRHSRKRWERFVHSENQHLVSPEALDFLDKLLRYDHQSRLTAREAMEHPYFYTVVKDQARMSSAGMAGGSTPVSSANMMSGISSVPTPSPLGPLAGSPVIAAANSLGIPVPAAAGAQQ

For orientation: IC50 means the concentration that inhibits the measured activity by half. The compound `N=C(N)NCCC[C@H](NC(=O)[C@H](CCCNC(=N)N)NC(=O)[C@H](CCCNC(=N)N)NC(=O)[C@H](CCCNC(=N)N)NC(=O)[C@H](CCCNC(=N)N)NC(=O)[C@H](CCCNC(=N)N)NC(=O)CCNC(=O)[C@H]1O[C@@H](n2cnc3c(N)ncnc32)[C@H](O)[C@@H]1O)C(=O)O` [Inhibitor V, AdoC(β-Ala)Arg6] had an IC50 in test [1] of 1.8 ± 0.1 µM. Also, on protein kinase CK2, the “IC50 (µM) CK2” value is “n. i.^f)”.

Usually Ki stands for the equilibrium dissociation constant of an inhibitor or competing ligand from its target. Low readings indicate a stronger hold on the target, high ones a looser hold on the target. On to `Nc1ncnc2c1ncn2[C@@H]1O[C@H](CO)[C@@H](O)[C@H]1O` [Adenosine], for which the Ki came out at 43100 nM on Protein Kinase A [2] and 43200 nM on Protein Kinase C.

Turning to `N=C(N)NCCC[C@H](NC(=O)[C@H](CCCNC(=N)N)NC(=O)[C@H](CCCNC(=N)N)NC(=O)[C@H](CCCNC(=N)N)NC(=O)[C@H](CCCNC(=N)N)NC(=O)[C@H](CCCNC(=N)N)NC(=O)CCCCCCCNC(=O)[C@H]1O[C@@H](n2cnc3c(N)ncnc32)[C@H](O)[C@@H]1O)C(=O)O` [Inhibitor VIII, AdoC(Aoc)Arg6], the IC50 was 0.24 ± 0.02 µM in test [1] and > 30 µM at protein kinase CK2.

`N=C(N)NCCC[C@H](NC(=O)[C@H](CCCNC(=N)N)NC(=O)[C@H](CCCNC(=N)N)NC(=O)[C@H](CCCNC(=N)N)NC(=O)[C@H](CCCNC(=N)N)NC(=O)[C@H](CCCNC(=N)N)NC(=O)CCCNC(=O)[C@H]1O[C@@H](n2cnc3c(N)ncnc32)[C@H](O)[C@@H]1O)C(=O)O` [Inhibitor VI, AdoC(GABA)Arg6]: the IC50 in [1] was 1.3 ± 0.2 µM; at protein kinase CK2 it was > 30 µM.

`NC(N)=NCCC[C@H](NC(=O)[C@H](CCCN=C(N)N)NC(=O)[C@H](CCCN=C(N)N)NC(=O)[C@H](CCCN=C(N)N)NC(=O)[C@H](CCCN=C(N)N)NC(=O)[C@@H](N)CCCN=C(N)N)C(=O)O` [Arg6] yielded a Ki on Protein Kinase A [3] of 29500 nM.

For `CC(=O)NCCCCCC(=O)N[C@@H](CCCN=C(N)N)C(=O)N[C@@H](CCCNC(=N)N)C(=O)N[C@@H](CCCNC(=N)N)C(=O)N[C@@H](CCCNC(=N)N)C(=O)N[C@@H](CCCNC(=N)N)C(=O)N[C@@H](CCCN=C(N)N)C(=O)O` [Ac(amino-hexanoic acid)Arg6, Ac(Ahx)Arg6], the Ki at Protein Kinase A [3] turned out to be 27900 nM.

Broadly, the Kd is the constant that tells how readily two partners part at equilibrium. On to `Nc1ncnc2c1ncn2[C@@H]1O[C@H](COP(=O)(O)OP(=O)(O)OP(=O)(O)O)[C@@H](O)[C@H]1O` [ATP, adenosine triphosphate], for which, on PKA, the Kd is 25 µM.

Take `C[C@H](NC(=O)C[C@H](NC(=O)C[C@H](NC(=O)[C@H]1O[C@@H](n2cnc3c(N)ncnc32)[C@H](O)[C@@H]1O)C(=O)O)C(=O)O)C(=O)N[C@@H](CCCNC(=N)N)C(=O)N[C@@H](CCCNC(=N)N)C(=O)N[C@@H](CCCNC(=N)N)C(=O)N[C@@H](CCCNC(=N)N)C(=O)N[C@@H](CCCNC(=N)N)C(=O)N[C@@H](CCCNC(=N)N)C(=O)O` [Inhibitor III, AdoC(β-Asp)2AlaArg6] ({Adenosine(5'-uronoyl)-βAsp-βAsp}-ARRRRRR-OH; C-terminus assumed): the IC50 in test [4] is 27 ± 2 µM; in [5], > 50 µM; on protein kinase CK1, > 30 µM.

As for `C[C@H](NC(=O)CCNC(=O)CCNC(=O)[C@H]1O[C@@H](n2cnc3c(N)ncnc32)[C@H](O)[C@@H]1O)C(=O)N[C@@H](CCCNC(=N)N)C(=O)N[C@@H](CCCNC(=N)N)C(=O)N[C@@H](CCCNC(=N)N)C(=O)N[C@@H](CCCNC(=N)N)C(=O)N[C@@H](CCCNC(=N)N)C(=O)N[C@@H](CCCNC(=N)N)C(=O)O` [Inhibitor I, AdoC(β-Ala )2AlaArg6], the IC50 in [1] is 4.3 ± 0.3 µM; at protein kinase CK2, > 30 µM.

Regarding `Nc1ncnc2nc[nH]c12` [adenine], the Kd on PKA was 30 µM.

Turning to `N=C(N)NCCC[C@H](NC(=O)[C@H](CCCNC(=N)N)NC(=O)[C@H](CCCNC(=N)N)NC(=O)[C@H](CCCNC(=N)N)NC(=O)[C@H](CCCNC(=N)N)NC(=O)[C@H](CCCNC(=N)N)NC(=O)CCCCCCCCCCNC(=O)[C@H]1O[C@@H](n2cnc3c(N)ncnc32)[C@H](O)[C@@H]1O)C(=O)O` [Inhibitor IX, AdoC(Aun)Arg6], the “IC50 (µM) CK2” value at protein kinase CK2 was “n. i.^f)”.

In the case of `N=C(N)NCCC[C@H](NC(=O)[C@H](CCCNC(=N)N)NC(=O)[C@H](CCCNC(=N)N)NC(=O)[C@H](CCCNC(=N)N)NC(=O)[C@H](CCCNC(=N)N)NC(=O)[C@H](CCCNC(=N)N)NC(=O)CNC(=O)[C@H]1O[C@@H](n2cnc3c(N)ncnc32)[C@H](O)[C@@H]1O)C(=O)O` [Inhibitor IV, AdoCGlyArg6], the results for the IC50 (in [1]; at protein kinase CK2) were 4 ± 0.2 µM and > 30 µM, respectively.

Take `C[C@H](NC(=O)[C@@H](N)CNC(=O)[C@@H](N)CNC(=O)[C@H]1O[C@@H](n2cnc3c(N)ncnc32)[C@H](O)[C@@H]1O)C(=O)N[C@@H](CCCNC(=N)N)C(=O)N[C@@H](CCCNC(=N)N)C(=O)N[C@@H](CCCNC(=N)N)C(=O)N[C@@H](CCCNC(=N)N)C(=O)N[C@@H](CCCNC(=N)N)C(=O)N[C@@H](CCCNC(=N)N)C(=O)O` [Inhibitor II, AdoC(Dpr)2AlaArg6] (H-[Dap](X1)ARRRRRR-OH; C-terminus assumed): the IC50 in [5] stood at 31 ± 3 µM; at protein kinase CK1, 5.6 ± 0.4 µM.

Turning to `N=C(N)NCCC[C@H](NC(=O)[C@H](CCCNC(=N)N)NC(=O)[C@H](CCCNC(=N)N)NC(=O)[C@H](CCCNC(=N)N)NC(=O)[C@H](CCCNC(=N)N)NC(=O)[C@H](CCCNC(=N)N)NC(=O)CCCCCNC(=O)[C@H]1O[C@@H](n2cnc3c(N)ncnc32)[C@H](O)[C@@H]1O)C(=O)O` [Inhibitor VII, AdoC(Ahx)Arg6], the results for the half-maximal inhibitory concentration (IC50) (in test [1]; on protein kinase CK2) were 0.12 ± 0.02 µM and > 30 µM, respectively. This compound came in with a Ki at Protein Kinase A [3] of 40.1 nM.
